pIC50: −log10 of the molar value. “Also recorded” adds a separate entry of the source. Where a name gives a salt, the structure may show the parent alone.
Experiments:
[1] = test system: Primary mouse hippocampal neurons; experiment: Excitotoxic (glutamate/NMDA-induced) cell death in primary neuronal cultures, protection index; type: cell-based; conditions: for pIC50: Mus musculus, Hippocampal neuron, excitotoxic cell death in primary neuronal cultures
Method: (§1) Primary mouse hippocampal neurons were prepared as previously described (Bading & Greenberg, Science, 1991; 253: 912-914; Zhang et al, Neuron, 2007, 53: 549-562) and maintained in Neurobasal-A medium supplemented with 2% B27, 5 mM L-Glutamax, and 0.5% Penicillin/Streptomycin until challenged with NMDA on days in vitro (DIV) 10. Glutamate-induced cell death was analyzed in a real-time manner by monitoring nuclear localized mCherry with IncuCyte® S3 Live-Cell Analysis System (Sartorius AG, Germany). Primary neurons plated in 24 well plates were infected with rAAV-hSyn-mCherry on DIV3 and challenged with 1 μM or 20 μM glutamate on DIV10. All compounds were added to the culture 30 min prior to glutamate/NMDA insult. Images were acquired following the glutamate application for 24 h with a 2 h interval, where 9-16 images were obtained via a 20×objective for each condition at each time point. Cell deaths were quantified by analyzing the existence of nuclear localized mCheery via the Basic Analyzer with Incucyte® 2021 software, size and average intensity were used as exclusion criteria.
In order to evaluate the protective effects of various compounds, a quantification method was developed to determine each compound's protection index. The protection index (from 0.0 to 10.0) was calculated by the area above the curve (AAC) during a 24 h excitotoxic stimuli, where the cell survival was normalized to the 0 h (FIG. 2), following the equation: […]
Where AAC represents for each compound, AACbasal represents for the basal condition without excitotoxic insult, AACVeh represents for the vehicle control with excitotoxic insult. Based on the equation, vehicle (DMSO) has a protection index at 0.0 and compound P401 of WO 2020/079244 has a protection index at 6.0 (at 10 μM).
The inventors also performed experiments with Group A compounds at lower concentration in a 3-fold dilution matter ([…]: 3.0, 1.0, 0.3, 0.1, 0.03) and were able to achieve a similar protection effect as 10 μM compound P401, but at a lower concentration.

[2] = test system: Primary neurons; experiment: Reactive oxygen species (H2O2) induced neuronal death in primary neurons; type: cell-based, mouse; conditions: 300 μM H2O2 on DIV10, compounds added 30 min before, FIG. 3
Method: as §1, with “Images were acquired following the glutamate application for 24 h with a 2 h interval, where 9-16 images were obtained via a 20×objective for each condition at each time point.” left out
Primary neurons plated in 24 well plates were infected with rAAV-hSyn-mCherry on DIV3 and challenged with 300 μM H2O2 on DIV10. […] Cell deaths were quantified by analyzing the existence of nuclear localized mCherry via the Basic Analyzer with Incucyte® 2021 software, size and average intensity were used as exclusion criteria.

[3] = third subset, A++++ or above correlates with IC50, A++ and A+++ as defined in the source

Compound	pIC50 ([1]; third subset)	other results
N#Cc1cccc(CN(CCN)C2CC2)c1F [Compound 219, 3-(((2-aminoethyl)(cyclopropyl)amino)methyl)-2-fluorobenzonitrile hydrochloride]	6.32	Biological Activity Rating [1, 3]: A+++
NCCN(Cc1cccc(Br)c1F)C1CC1 [Compound 219B]	5.84	Biological Activity Rating [1, 3]: A++
CC(c1cccc(Cl)c1F)N(CCN)C1CC1 (centres unmarked) [Compound 220, N1-(1-(3-chloro-2-fluorophenyl)ethyl)-N1-cyclopropylethane-1,2-diamine hydrochloride]		Biological Activity Rating ([1]; second subset, protection index from area above curve over 24 h glutamate/NMDA insult, compounds added 30 min before, 10 μM, Group A also at lower concentrations, hydrochloride): A++++ (With a protection index between 5.0 to 7.0, provides a comparable protection to compound P401 (10 μM) at 0.1 μM.); protection against H2O2 insult (cell survival) ([2]; hydrochloride): better protection against H2O2 insult compared to P401 at 10 μM; also recorded: even better protection than the prior art compound P401
CCC(c1cccc(Cl)c1F)N(CCN)C1CC1 (centres unmarked) [Compound 224, N1-(1-(3-chloro-2-fluorophenyl)propyl)-N1-cyclopropylethane-1,2-diamine hydrochloride]	7.59	
CC(C)C(c1cccc(Cl)c1F)N(CCN)C1CC1 (centres unmarked) [Compound 225]	8.30	
CC(c1cccc(Br)c1F)N(CCN)C1CCC1 (centres unmarked) [Compound 227B]	6.52	Biological Activity Rating [1, 3]: A+++
CC(c1c(Cl)ccc(Cl)c1F)N(CCN)C1CC1 (centres unmarked) [Compound 242]	6.52	Biological Activity Rating [1, 3]: A+++
CC(c1cc(Cl)ccc1F)N(CCN)C1CC1 (centres unmarked) [Compound 243]	6.52	Biological Activity Rating [1, 3]: A+++
CC(c1cccc(F)c1Cl)N(CCN)C1CC1 (centres unmarked) [Compound 246]	6.30	Biological Activity Rating [1, 3]: A+++
NCCN(C1CC1)C(CC(F)(F)F)c1cccc(Cl)c1F (centres unmarked) [Compound 247, N^1-(1-(3-chloro-2-fluorophenyl)-3,3,3-trifluoropropyl)-N^1-cyclopropylethane-1,2-diamine hydrochloride]	8.00	
CCC(c1cccc(Cl)c1F)N(CCN)C1CC(F)(F)C1 (centres unmarked) [Compound 248]	6.92	
CCC(c1cccc(C#N)c1F)N(CCN)C1CC1 (centres unmarked) [Compound 257, 3-(1-((2-aminoethyl)(cyclopropyl)amino)propyl)-2-fluorobenzonitrile hydrochloride]	7.96	
CCC(c1cccc(Br)c1F)N(CCN)C1CC1 (centres unmarked) [Compound 258]	7.89	
CCC(c1c(F)ccc(C#N)c1F)N(CCN)C1CC1 (centres unmarked) [Compound 259]	7.49	
N#Cc1cccc(C(N(CCN)C2CC2)C(F)(F)F)c1F (centres unmarked) [Compound 261, 3-[1-[2-aminoethyl(cyclopropyl)amino]-2,2,2-trifluoro-ethyl]-2-fluoro-benzonitrile hydrochloride]	6.96	
NCCN(C1CC1)C(c1cccc(Br)c1F)C(F)(F)F (centres unmarked) [Compound 261A, N′-[1-(3-bromo-2-fluoro-phenyl)-2,2,2-trifluoro-ethyl]-N′-cyclopropyl-ethane-1,2-diamine hydrochloride]	7.48	
CCCN(CCN)C(CC)c1cccc(Cl)c1F (centres unmarked) [Compound 262, N1-(1-(3-chloro-2-fluorophenyl)propyl)-N1-propylethane-1,2-diamine hydrochloride]	8.00	

Compound	pIC50 ([1]; third subset)	other results
NCCN(C1CC1)C(c1cccc(Cl)c1F)C(F)(F)F (centres unmarked) [Compound 263, N^1-(1-(3-chloro-2-fluorophenyl)-2,2,2-trifluoroethyl)-N^1-cyclopropylethane-1,2-diamine hydrochloride]	6.59	
CC(C)C(c1cccc(C#N)c1F)N(CCN)C1CC1 (centres unmarked) [Compound 264, 3-(1-((2-aminoethyl)(cyclopropyl)amino)-2-methylpropyl)-2-fluorobenzonitrile TFA salt]	8.52	
NCCN(C1CC1)C(c1cccc(Cl)c1F)C1CCC1 (centres unmarked) [Compound 267, N^1-((3-chloro-2-fluorophenyl)(cyclobutyl)methyl)-N^1-cyclopropylethane-1,2-diamine hydrochloride]	6.89	
NCCN(C1CC1)C(c1cccc(Cl)c1F)C1CCCC1 (centres unmarked) [Compound 268]	6.55	
NCCN(C1CC1)C(c1cccc(Cl)c1F)C(F)(F)C(F)(F)F (centres unmarked) [Compound 270, N1-(1-(3-chloro-2-fluorophenyl)-2,2,3,3,3-pentafluoropropyl)-N1-cyclopropylethane-1,2-diamine TFA salt]	7.89	
C=CCC(c1cccc(Cl)c1F)N(CCN)C1CC1 (centres unmarked) [Compound 271A, N′-[1-(3-chloro-2-fluoro-phenyl)but-3-enyl]-N′-cyclopropyl-ethane-1,2-diamine TFA salt]	8.15	
NCCN(C1CC1)C(c1cccc(Cl)c1F)C(F)F (centres unmarked) [Compound 275, N1-(1-(3-chloro-2-fluorophenyl)-2,2-difluoroethyl)-N1-cyclopropylethane-1,2-diamine hydrochloride]	6.33	Biological Activity Rating [1, 3]: A+++
CC(c1cc(Cl)cs1)N(CCN)C1CC1 (centres unmarked) [Compound 279, N′-[1-(4-chloro-2-thienyl)ethyl]-N′-cyclopropyl-ethane-1,2-diamine hydrochloride]	6.64	
N#Cc1cccc(C(CC(F)(F)F)N(CCN)C2CC2)c1F (centres unmarked) [Compound 280, 3-(1-((2-aminoethyl)(cyclopropyl)amino)-3,3,3-trifluoropropyl)-2-fluorobenzonitrile hydrochloride]	7.44	
CC(C)C(c1cccc(Cl)c1F)N(CCN)CC(F)F (centres unmarked) [Compound 282, N′-[1-(3-chloro-2-fluoro-phenyl)-2-methyl-propyl]-N′-(2,2-difluoroethyl)ethane-1,2-diamine TFA salt]	7.29	
CC(C)(F)C(c1cccc(C#N)c1F)N(CCN)C1CC1 (centres unmarked) [Compound 287, 3-[1-[2-aminoethyl(cyclopropyl)amino]-2-fluoro-2-methyl-propyl]-2-fluoro-benzonitrile TFA salt]	8.52	
CC(C)C(c1cccc(Br)c1F)N(CCN)C1CC1 (centres unmarked) [Compound 294, N′-[1-(3-bromo-2-fluoro-phenyl)-2-methyl-propyl]-N′-cyclopropyl-ethane-1,2-diamine TFA salt]	8.00	
C#Cc1cccc(C(C)N(CCN)C2CC2)c1F (centres unmarked) [Compound 295, N′-cyclopropyl-N′-[1-(3-ethynyl-2-fluoro-phenyl)ethyl]ethane-1,2-diamine TFA salt]	7.49	
CC(c1scc(C#N)c1F)N(CCN)C1CC1 (centres unmarked) [Compound 297, 5-[1-[2-aminoethyl(cyclopropyl)amino]ethyl]-4-fluoro-thiophene-3-carbonitrile TFA salt]	6.01	Biological Activity Rating [1, 3]: A+++
CC(c1scc(Br)c1F)N(CCN)C1CC1 (centres unmarked) [Compound 297A, N′-[1-(4-bromo-3-fluoro-2-thienyl)ethyl]-N′-cyclopropyl-ethane-1,2-diamine TFA salt]	7.09	
CCN(CCN)Cc1cccc(Cl)c1 [Compound P401, (2-aminoethyl)[(3-chlorophenyl)methyl]ethylamine, reference compound]		protection (cell survival after glutamate/NMDA treatment) ([1]; 10 μM, primary cultured neurons, FIG. 2): ~60%; protection index ([1]; at 10 μM, scale 0.0 to 10.0, vehicle (DMSO) = 0.0): 6.0; protection against H2O2 insult (cell survival) [2]: better protection against H2O2 insult compared to FDA-approved ALS drug Riluzole and Edaravone; also recorded: better protection against H2O2 insult than the FDA-approved ALS drug Riluzole and Edaravone

From patent publication US20250339402A1, “EFFECTIVE MEANS TO MODULATE NMDA RECEPTOR-MEDIATED TOXICITY” (FUNDAMENTAL PHARMA GMBH, priority 2022, published 2025)
